The values that follow come from patent publication US5646156A, “Inhibition of eosinophil activation through A3 adenosine receptor antagonism” (Merck & Co., Inc., priority 1994, dated 1997).

Assay [1] deals with T1, human A3 adenosine receptor (Homo sapiens, UniProt P0DMS8).
T1 construct: clone HS-21a contained the complete open reading frame corresponding to the human homolog of the rat A3 adenosine receptor; expressed in transfected cells; host or cells: CHO cells, stably transfected (pCMV5-A3; pSVL and pREP vectors are also described)
T1 sequence (P0DMS8 1-318): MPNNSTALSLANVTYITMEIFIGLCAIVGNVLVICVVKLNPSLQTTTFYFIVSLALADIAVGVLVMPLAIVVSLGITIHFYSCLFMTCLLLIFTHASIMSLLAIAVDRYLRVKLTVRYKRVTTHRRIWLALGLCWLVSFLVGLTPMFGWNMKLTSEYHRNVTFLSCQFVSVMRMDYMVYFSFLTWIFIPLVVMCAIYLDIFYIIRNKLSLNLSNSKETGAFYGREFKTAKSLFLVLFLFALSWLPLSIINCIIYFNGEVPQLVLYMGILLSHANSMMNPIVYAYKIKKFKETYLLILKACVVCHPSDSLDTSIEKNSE
Nature of the assay: Competition binding vs 125I-ABA, membranes of CHO cells stably expressing HS-21a (human A3 adenosine receptor). The settings on record: competition with 125I-ABA, CHO membranes, human A3. Here is the method:
Pellets were resuspended in 5 mM Hepes, pH 7.4/5 mM MgCl2 /0.1 mM benzamidine/0.1 mM PMSF at a protein concentration of 1-2 mg/mL and were incubated with adenosine deaminase (Boehringer Mannheim), 2 U/mL at 37° C. for 20 minutes. […] The assay was terminated by rapid filtration and three washes with ice-cold binding buffer on a Skatron harvester equipped with a receptor binding filtermat (Skatron Instruments, INC). […] Nonspecific binding was measured in the presence of 1 μM I-ABA. […] Binding data were analyzed and competition curves were constructed by use of the nonlinear regression curve fitting program Graph PAD InPlot, Version 3.0 (Graph Pad Software, San Diego).

Assay [2] addresses T1, human A3 adenosine receptor. Conditions: potencies disclosed by Salvatore et al.; cited from earlier work.
Assay [3] concerns human adenosine receptors (all subtypes). Conditions: cited from earlier work.
Assay [4] concerns the target T1, human A3 adenosine receptor. Conditions: antagonist potency in cAMP assay; disclosed by Salvatore et al.; cited from earlier work. A general note: Changes in cAMP serve as a functional read-out for many G protein-coupled receptors.

For orientation: Ki means a dissociation constant, usually derived from enzyme kinetics or from competition with a known ligand. Lower therefore signals tighter binding. In assay [1], `CCCn1c(=O)c2[nH]c(-c3ccc(C=CC(=O)O)cc3)nc2n(CCC)c1=O` [BW-A1433, 1,3-dipropyl-8-(4-acrylate)phenylxanthine] came in with a Ki of 55 nM. The “BINDING pKi” value in assay [2] was 7.26. Moreover, the “blockade of human adenosine receptor subtypes” value in assay [3] is “blocked”. For the same molecule, the “cAMP pKi” value in assay [4] was 7.0.
